Experimental data taken from US8779092B2, “Metastasis-specific peptides and their diagnostic and therapeutic applications” (Universita Degli Studi di Torino, priority 2006, dated 2014).

Tested on: primary cells of hepatic metastasis
Assay: Binding experiments on primary cells
Design: species or system human
Conditions: for binding of phage clone to primary hepatic metastasis cells: compared to normal liver of the same patient; for binding of phage clone to primary hepatic metastasis cells, summary over samples: all tested patient samples
Experimental: Samples were processed immediately after surgical removal, in order to disaggregate the tissues and extract single cells on which to perform the experiments. All the manipulations were performed under laminar flux in sterility. Samples were chopped with a scalpel in a small volume of PBS. The suspension, collected in PBS, was centrifuged for 3 minutes at 100 rpm at room temperature and the pellet was resuspended in 5 ml of collagenase (0.25% weight/volume in DMEM). The digestion of the tissue fragments was done incubating this suspension for 2 hours at 37° C. while shaking. The sample was again centrifuged, to eliminate all the particulate under the cell size (lipid aggregates, cell portions) or also smaller cells, of hematopoietic origin. Pellet was washed twice in PBS. Cells were filtered on filters with a diameter of 45 μm, counted in Burker chamber and resuspended at a concentration of 10^6/ml in DMEM/FCS/HEPES.
These assays were performed with an Input of 10^9 TU of each clone, on cells from the hepatic metastasis cell line (target) and on cells from normal liver (negative control). The Output of these experiments was normalized on binding to an insertless phage, fd-tet, giving a measure of the unspecific interaction due to the phage itself. The binding increase was evaluated as ratio between normalized Output of the target and normalized Output of the negative control. All the experiments were repeated at least 3 times, when possible for material availability.
To evaluate if the selected inserts were specific for ubiquitous surface determinants in human hepatic metastases, the 7 selected clones were tested on primary cells of hepatic metastasis, comparing to normal liver of the same patients. For these binding assays, samples from 9 patients were used (20, 21, 22, 25, 26, 27, 28, 31, 32), with the same conditions described for the cell lines.
In the first experiments, due to the low cell numbers, related to the set up phase of the purification procedure, the binding of only some clones was evaluated. In general, 3 assays have been performed for each sample. […] It is interesting to note that, in the experiments on fresh cells, binding increases are much higher than in those performed with the cultured cell lines.

Substance | binding of phage clone to primary hepatic metastasis cells (patient P#27) | binding of phage clone to primary hepatic metastasis cells (patient P#28) | binding of phage clone to primary hepatic metastasis cells, summary over samples
MRYALRS (listed as Homo sapiens) [SEQ ID NO. 2] | negative | negative | 
LRPGLRS (listed as Homo sapiens) [SEQ ID NO. 3] |  |  | worked on all the samples
GIYRLRS ((6)..(6) May be fused with GST; listed as Homo sapiens) [SEQ ID NO. 6] |  |  | worked on all the samples
ARPGLRS (listed as Homo sapiens) [SEQ ID NO. 1] |  |  | worked on all the samples
GVYSLRS (listed as Homo sapiens) [SEQ ID NO. 7] |  |  | worked on all the samples
